Experimental data from ChEMBL document CHEMBL3885881, “DrugMatrix”.

Species on record: Rattus norvegicus
Assay: DrugMatrix - Regimen: Daily Repeat
Type: toxicity, organism-based, Sprague-Dawley
Parameters: regimen Daily Repeat, gender Male, age 6-8 weeks
Conditions: in vivo, po, route oral GAVAGE, vehicle 100 % WATER; for ABSOLUTE BASOPHIL / ABSOLUTE EOSINOPHIL / ABSOLUTE LYMPHOCYTE / ABSOLUTE MONOCYTE / ABSOLUTE SEGMENTED NEUTROPHIL / BASOPHIL / EOSINOPHIL / ERYTHROCYTE COUNT / HEMATOCRIT / HEMOGLOBIN / LEUKOCYTE COUNT / LYMPHOCYTE / MEAN CORPUSCULAR HEMOGLOBIN / MEAN CORPUSCULAR HEMOGLOBIN CONCENTRATION / MEAN CORPUSCULAR VOLUME / MONOCYTE / NEUTROPHIL / NUCLEATED RED BLOOD CELLS / PLATELET COUNT: tissue Blood; for ALANINE AMINOTRANSFERASE / ALBUMIN / ALKALINE PHOSPHATASE / ASPARTATE AMINOTRANSFERASE / BLOOD UREA NITROGEN / CARBON DIOXIDE / CHLORIDE / CHOLESTEROL / CREATINE PHOSPHOKINASE / CREATININE / GLUCOSE / LACTATE DEHYDROGENASE / LIPASE / PHOSPHORUS / POTASSIUM / SODIUM / TOTAL BILIRUBIN / TOTAL PROTEIN / URIC ACID: tissue Plasma
[1] = 0 mg/kg, 72 h, dose level Control, time 3 day
[2] = 0 mg/kg, 120 h, dose level Control, time 5 day
[3] = 100 mg/kg, 72 h, dose level High, time 3 day
[4] = 100 mg/kg, 120 h, dose level High, time 5 day

Compound: CN(C)CCOC(c1ccccc1)c1ccccc1 [DIPHENHYDRAMINE]
- ABSOLUTE BASOPHIL [1]: 0 CELLS/uL
- ABSOLUTE EOSINOPHIL [1]: 20.17 CELLS/uL
- ABSOLUTE LYMPHOCYTE [1]: 12371.67 CELLS/uL
- ABSOLUTE MONOCYTE [1]: 166 CELLS/uL
- ABSOLUTE SEGMENTED NEUTROPHIL [1]: 1292.17 CELLS/uL
- BASOPHIL [1]: 0%
- EOSINOPHIL [1]: 0.17%
- ERYTHROCYTE COUNT [1]: 5.46 x10E6/uL
- HEMATOCRIT [1]: 34.38%
- HEMOGLOBIN [1]: 13.32 G/DL
- LEUKOCYTE COUNT [1]: 13.85 x10E3/uL
- LYMPHOCYTE [1]: 88.5%
- MEAN CORPUSCULAR HEMOGLOBIN [1]: 24.42 pg
- MEAN CORPUSCULAR HEMOGLOBIN CONCENTRATION [1]: 38.7 G/DL
- MEAN CORPUSCULAR VOLUME [1]: 63.07 fL
- MONOCYTE [1]: 1.17%
- NEUTROPHIL [1]: 10.17%
- NUCLEATED RED BLOOD CELLS [1]: 0.17 /100WBC
- PLATELET COUNT [1]: 1193.5 x10E3/uL
- ALANINE AMINOTRANSFERASE [1]: 54.5 u/L
- ALBUMIN [1]: 4.02 G/DL
- ALKALINE PHOSPHATASE [1]: 346.5 u/L
- ASPARTATE AMINOTRANSFERASE [1]: 103.17 u/L
- BLOOD UREA NITROGEN [1]: 16.5 mg/dL
- CARBON DIOXIDE [1]: 29.83 mmol/L
- CHLORIDE [1]: 99.5 MEQ/L
- CHOLESTEROL [1]: 72.5 mg/dL
- CREATINE PHOSPHOKINASE [1]: 532.5 u/L
- CREATININE [1]: 0.18 mg/dL
- GLUCOSE [1]: 168.5 mg/dL
- LACTATE DEHYDROGENASE [1]: 536.5 u/L
- LIPASE [1]: 11.17 u/L
- PHOSPHORUS [1]: 11.48 mg/dL
- POTASSIUM [1]: 5.95 MEQ/L
- SODIUM [1]: 140.5 MEQ/L
- TOTAL BILIRUBIN [1]: 0.18 mg/dL
- TOTAL PROTEIN [1]: 5.77 G/DL
- URIC ACID [1]: 1.42 mg/dL
- ABSOLUTE BASOPHIL [2]: 0 CELLS/uL
- ABSOLUTE EOSINOPHIL [2]: 22.83 CELLS/uL
- ABSOLUTE LYMPHOCYTE [2]: 12202.83 CELLS/uL
- ABSOLUTE MONOCYTE [2]: 158 CELLS/uL
- ABSOLUTE SEGMENTED NEUTROPHIL [2]: 1283 CELLS/uL
- BASOPHIL [2]: 0%
- EOSINOPHIL [2]: 0.17%
- ERYTHROCYTE COUNT [2]: 5.88 x10E6/uL
- HEMATOCRIT [2]: 36.62%
- HEMOGLOBIN [2]: 14.07 G/DL
- LEUKOCYTE COUNT [2]: 13.67 x10E3/uL
- LYMPHOCYTE [2]: 89.5%
- MEAN CORPUSCULAR HEMOGLOBIN [2]: 23.95 pg
- MEAN CORPUSCULAR HEMOGLOBIN CONCENTRATION [2]: 38.43 G/DL
- MEAN CORPUSCULAR VOLUME [2]: 62.28 fL
- MONOCYTE [2]: 1.17%
- NEUTROPHIL [2]: 9.17%
- NUCLEATED RED BLOOD CELLS [2]: 0.17 /100WBC
- PLATELET COUNT [2]: 1198 x10E3/uL
- ALANINE AMINOTRANSFERASE [2]: 51 u/L
- ALBUMIN [2]: 4.3 G/DL
- ALKALINE PHOSPHATASE [2]: 343 u/L
- ASPARTATE AMINOTRANSFERASE [2]: 89.83 u/L
- BLOOD UREA NITROGEN [2]: 17.67 mg/dL
- CARBON DIOXIDE [2]: 27.17 mmol/L
- CHLORIDE [2]: 98.33 MEQ/L
- CHOLESTEROL [2]: 82.5 mg/dL
- CREATINE PHOSPHOKINASE [2]: 533.33 u/L
- CREATININE [2]: 0.18 mg/dL
- GLUCOSE [2]: 152.67 mg/dL
- LACTATE DEHYDROGENASE [2]: 220.33 u/L
- LIPASE [2]: 11.5 u/L
- PHOSPHORUS [2]: 11.25 mg/dL
- POTASSIUM [2]: 6.29 MEQ/L
- SODIUM [2]: 140.53 MEQ/L
- TOTAL BILIRUBIN [2]: 0.22 mg/dL
- TOTAL PROTEIN [2]: 6.12 G/DL
- URIC ACID [2]: 1.42 mg/dL
- ABSOLUTE BASOPHIL [3]: 0 CELLS/uL
- ABSOLUTE EOSINOPHIL [3]: 48.67 CELLS/uL
- ABSOLUTE LYMPHOCYTE [3]: 13023.67 CELLS/uL
- ABSOLUTE MONOCYTE [3]: 77 CELLS/uL
- ABSOLUTE SEGMENTED NEUTROPHIL [3]: 750.67 CELLS/uL
- BASOPHIL [3]: 0%
- EOSINOPHIL [3]: 0.33%
- ERYTHROCYTE COUNT [3]: 5.83 x10E6/uL
- HEMATOCRIT [3]: 36.17%
- HEMOGLOBIN [3]: 14.33 G/DL
- LEUKOCYTE COUNT [3]: 13.9 x10E3/uL
- LYMPHOCYTE [3]: 93.67%
- MEAN CORPUSCULAR HEMOGLOBIN [3]: 24.6 pg
- MEAN CORPUSCULAR HEMOGLOBIN CONCENTRATION [3]: 39.67 G/DL
- MEAN CORPUSCULAR VOLUME [3]: 62.07 fL
- MONOCYTE [3]: 0.67%
- NEUTROPHIL [3]: 5.33%
- NUCLEATED RED BLOOD CELLS [3]: 0 /100WBC
- PLATELET COUNT [3]: 1203 x10E3/uL
- ALANINE AMINOTRANSFERASE [3]: 46.67 u/L
- ALBUMIN [3]: 4 G/DL
- ALKALINE PHOSPHATASE [3]: 345.33 u/L
- ASPARTATE AMINOTRANSFERASE [3]: 88.67 u/L
- BLOOD UREA NITROGEN [3]: 16.67 mg/dL
- CARBON DIOXIDE [3]: 30.33 mmol/L
- CHLORIDE [3]: 100.33 MEQ/L
- CHOLESTEROL [3]: 78 mg/dL
- CREATINE PHOSPHOKINASE [3]: 422.33 u/L
- CREATININE [3]: 0.14 mg/dL
- GLUCOSE [3]: 146 mg/dL
- LACTATE DEHYDROGENASE [3]: 334.67 u/L
- LIPASE [3]: 11.67 u/L
- PHOSPHORUS [3]: 12.1 mg/dL
- POTASSIUM [3]: 6.05 MEQ/L
- SODIUM [3]: 141 MEQ/L
- TOTAL BILIRUBIN [3]: 0.17 mg/dL
- TOTAL PROTEIN [3]: 5.67 G/DL
- URIC ACID [3]: 1.3 mg/dL
- ABSOLUTE BASOPHIL [4]: 0 CELLS/uL
- ABSOLUTE EOSINOPHIL [4]: 0 CELLS/uL
- ABSOLUTE LYMPHOCYTE [4]: 12726.67 CELLS/uL
- ABSOLUTE MONOCYTE [4]: 228 CELLS/uL
- ABSOLUTE SEGMENTED NEUTROPHIL [4]: 1012 CELLS/uL
- BASOPHIL [4]: 0%
- EOSINOPHIL [4]: 0%
- ERYTHROCYTE COUNT [4]: 5.75 x10E6/uL
- HEMATOCRIT [4]: 34.8%
- HEMOGLOBIN [4]: 13.73 G/DL
- LEUKOCYTE COUNT [4]: 13.97 x10E3/uL
- LYMPHOCYTE [4]: 91.33%
- MEAN CORPUSCULAR HEMOGLOBIN [4]: 23.9 pg
- MEAN CORPUSCULAR HEMOGLOBIN CONCENTRATION [4]: 39.47 G/DL
- MEAN CORPUSCULAR VOLUME [4]: 60.53 fL
- MONOCYTE [4]: 1.67%
- NEUTROPHIL [4]: 7%
- NUCLEATED RED BLOOD CELLS [4]: 0 /100WBC
- PLATELET COUNT [4]: 1281 x10E3/uL
- ALANINE AMINOTRANSFERASE [4]: 54.33 u/L
- ALBUMIN [4]: 3.93 G/DL
- ALKALINE PHOSPHATASE [4]: 386 u/L
- ASPARTATE AMINOTRANSFERASE [4]: 79.33 u/L
- BLOOD UREA NITROGEN [4]: 16.67 mg/dL
- CARBON DIOXIDE [4]: 25.67 mmol/L
- CHLORIDE [4]: 99 MEQ/L
- CHOLESTEROL [4]: 60 mg/dL
- CREATINE PHOSPHOKINASE [4]: 323.33 u/L
- CREATININE [4]: 0.11 mg/dL
- GLUCOSE [4]: 154.67 mg/dL
- LACTATE DEHYDROGENASE [4]: 155.33 u/L
- LIPASE [4]: 11.33 u/L
- PHOSPHORUS [4]: 11.47 mg/dL
- POTASSIUM [4]: 6.2 MEQ/L
- SODIUM [4]: 141.53 MEQ/L
- TOTAL BILIRUBIN [4]: 0.2 mg/dL
- TOTAL PROTEIN [4]: 5.5 G/DL
- URIC ACID [4]: 1.97 mg/dL
